Columns and labels:
[1] = Toxic side effects by body weights of LLC mice; assay type: in vivo, C57B1/6 mice; details: CDDP alone 4 mg/kg; after fifteen days from inoculation
Protocol: LLC cells were resuspended in sterile PBS (10^6 cells/0.2 ml) and implanted in C57B1/6 mice. After a period of 11 days, primary tumors reached an average volume of 1.0 cm^3 and were surgically resected. After surgery, mice were randomized into groups of 15 animals and control article (saline) and cartilage extract were administered on a daily basis via oral gavage at the dose levels indicated for a period of 15 days. At day 16-post-surgery, animals were sacrificed, the lungs fixed in 10% […] and the number of lung metastases counted. Animals were always kept under controlled environment: temperature 22° C., humidity 40% to 50%, light/dark cycle: 12 hours. They were fed and given water ad libitum. The toxic side effects were evaluated by measuring the body weights. The results are illustrated in FIG. 2. During the first week of treatment, the body weights increased in all groups. Treatment started on Day 12 of the protocol. The decrease in body weight observed between the second and the third time point of the graph results from the surgery (on day 11) necessary to remove the primary LLC tumor mass. After fifteen days from inoculation, it was observed that CDDP alone was very toxic since a decrease of about 16% of body weight occurred in comparison to the non-treated group.

LLC lung metastasis = assay: Lewis lung carcinoma model (LLC), number of lung metastases; assay type: in vivo, C57B1/6 mice; details: for Percent reduction from control (lung metastases): first experiment
Protocol: We have verified the anti-tumor efficacy and the protective effect of cartilage extract by testing a combination of diverse concentrations of cartilage liquid extract alone and in combination with cisplatin (CDDP), in the Lewis lung carcinoma model (LLC). LLC cells were resuspended in sterile PBS (10^6 cells/0.2 ml) and implanted in C57B1/6 mice. After a period of 11 days, primary tumors reached an average volume of 1.0 cm^3 and were surgically resected. After surgery, mice were randomized into groups of 15 animals and control article (saline) and cartilage extract were administered on a daily basis via oral gavage at the dose levels indicated for a period of 15 days. At day 16-post-surgery, animals were sacrificed, the lungs fixed in 10% […] and the number of lung metastases counted. Animals were always kept under controlled environment: temperature 22° C., humidity 40% to 50%, light/dark cycle: 12 hours. They were fed and given water ad libitum. In a first experiment, five injections of CDDP were given intraperitoneally every three days (1, 2 and 3 mg/Kg). Cartilage extract was given per as daily (31, 125 and 500 mg/Kg). Saline was given as a control. In a second independent experiment, CDDP was given at a dose of 4 mg/kg. Cartilage extract was given at doses 75, 150 and 500 mg/kg. Saline was given again as a control. Administration of CDDP alone reduced the number of metastases by about 71%.

[2] = test system: peripheral white blood cells; assay: Number of peripheral white blood cells in normal mice; assay type: in vivo; details: for Number of white blood cells: day 15
Protocol: Toxicity was evaluated in cancerous animals by the body weight decrease. We further characterized the nature of the protective effect provided by the cartilage extract by assessing an hematology parameter namely the number of peripheral white blood cells. Normal mice were injected (l.P.) with CDDP (3 and 4 mg/kg) on days 1, 4, 7, 10 and 13 of the experimental protocol. The cartilage extract was administered, orally, at doses of 75, 150 and 500 mg/kg/day. Animals were sacrificed on day 15 and blood samples were collected for cell count using an automated blood cell analyzer. Groups consisted of animals receiving CDDP alone, the cartilage extract alone, both in combination or saline as negative control. […] Values obtained from individual groups that have received cartilage extract were pooled to increase statistical power. Mean white blood cell counts were plotted according to treatment group regimen (FIG. 3). A linear trend indicated a clear monotonic trend (r^2=0.9126) for as decrease in cell counts according to treatment regimen stringency. This observation is in agreement with a protective effect of the cartilage extract relative to the peripheral white blood cell population reduced during CDDP administration.

[NH2][Pt]([NH2])([Cl])[Cl] [CDDP, cisplatin]
decrease of body weight in comparison to the non-treated group [1]: about 16%
Percent reduction from control (lung metastases) (LLC lung metastasis; CDDP 1 mg/kg i.p., alone): 19%
Percent reduction from control (lung metastases) (LLC lung metastasis; CDDP 2 mg/kg i.p., alone): 35%
Percent reduction from control (lung metastases) (LLC lung metastasis; CDDP 3 mg/kg i.p. every three days x5, alone): 54%
reduction of the number of metastases (LLC lung metastasis; CDDP alone 4 mg/kg, second independent experiment): about 71%
decrease in metastases (LLC lung metastasis; CDDP alone at 5 mg/kg (data not shown), stated equivalent to the 500 mg/kg/day + 3 mg combination): ~85%
Number of white blood cells ([2]; CDDP 3 mg/kg i.p. days 1, 4, 7, 10, 13): 3.4e+09 L⁻¹
Number of white blood cells ([2]; CDDP 4 mg/kg i.p. days 1, 4, 7, 10, 13): 3.3e+09 L⁻¹
effect on number of white blood cells ([2]; CDDP 3 and 4 mg/kg alone): significant decrease of the number of white blood cells
